From US6114371A, “3-(cyclohexanoheteroarylidenyl)-2-indolinone protein tyrosine kinase inhibitors” (Sugen, Inc., priority 1998, dated 2000)
pIC50: −log10 of the molar value.

How the values were obtained:
[1] = target: T1, FLK-1 receptor (Mus musculus, UniProt P35918); assay: FLK-1 ELISA (kinase activity of the FLK-1 receptor in engineered cells); type: cell-based; conditions: Table 2; read-out: FLK-1R IC50
T1 construct: expressed in transfected cells; host or cells: NIH3T3 C7#3 cells

[2] = target: T2, src protein kinase (Gallus gallus, UniProt P00523); assay: Biochemical src assay - ELISA; conditions: Table 2
T2 construct: made in house; host or cells: Schizosaccharomyces pombe (yeast transformed with src, lysate)
Description: This assay is used to determine src protein kinase activity measuring phosphorylation of a biotinylated peptide as the readout.
h. […] S. Pombe strain SP200 (h-s leul.32 ura4 ade210) is grown as described and transformations are pRSP expression plasmids are done by the lithium acetate method (Superti-Furga, supra). Cells are grown in the presence of 1 μM thiamine to repress expression from the nmtl promoter or in the absence of thiamine to induce expression.
2. Add 0.08 mL Kinase Reaction Mixture per well (containing 10 μL of 10×Kinase Buffer and 10 μM (final concentration) biotin-[…] per well diluted in water.
(§1) 3. Add 10 μL of compound diluted in water containing 10% DMSO and pre-incubate for 15 minutes at room temperature.
4. Start kinase reaction by adding 10 μL/well of 0.05 mM ATP in water (5 μM ATP final).
(§2) The IC50 values were measured for several of the compounds of the invention.

[3] = target: T3, lck protein kinase (Homo sapiens, UniProt P06239); assay: Biochemical lck assay - ELISA; conditions: Table 2
T3 construct: made in house; host or cells: Schizosaccharomyces pombe strain SP200 (lysate)
Description: This assay is used to determine lck protein kinase activities measuring phosphorylation of GST-.zeta. as the readout.
b. Yeast transformed with lck. […] S. Pombe strain SP200 (h-s leul.32 ura4 ade210) is grown as described and transformations with pRSP expression plasmids are done by the lithium acetate method (Superti-Furga, supra). Cells are grown in the presence of 1 μM thiamine to induce expression.
2. Add 0.08 mL Kinase Reaction Mixture per well (containing 10 μl of 10×Kinase Buffer and 2 μg GST-.zeta. per well diluted with water).
as §1
4. Start kinase reaction by adding 10 μL/well of 0.1 mM ATP in water (10 μM ATP final).
The IC50 values were measured for one of the compounds of the invention.

[4] = target: FAK (Homo sapiens, UniProt Q05397); assay: FAK assay; type: biochemical; conditions: Table 2
FAK, sequence (Q05397 whole entry, species assumed): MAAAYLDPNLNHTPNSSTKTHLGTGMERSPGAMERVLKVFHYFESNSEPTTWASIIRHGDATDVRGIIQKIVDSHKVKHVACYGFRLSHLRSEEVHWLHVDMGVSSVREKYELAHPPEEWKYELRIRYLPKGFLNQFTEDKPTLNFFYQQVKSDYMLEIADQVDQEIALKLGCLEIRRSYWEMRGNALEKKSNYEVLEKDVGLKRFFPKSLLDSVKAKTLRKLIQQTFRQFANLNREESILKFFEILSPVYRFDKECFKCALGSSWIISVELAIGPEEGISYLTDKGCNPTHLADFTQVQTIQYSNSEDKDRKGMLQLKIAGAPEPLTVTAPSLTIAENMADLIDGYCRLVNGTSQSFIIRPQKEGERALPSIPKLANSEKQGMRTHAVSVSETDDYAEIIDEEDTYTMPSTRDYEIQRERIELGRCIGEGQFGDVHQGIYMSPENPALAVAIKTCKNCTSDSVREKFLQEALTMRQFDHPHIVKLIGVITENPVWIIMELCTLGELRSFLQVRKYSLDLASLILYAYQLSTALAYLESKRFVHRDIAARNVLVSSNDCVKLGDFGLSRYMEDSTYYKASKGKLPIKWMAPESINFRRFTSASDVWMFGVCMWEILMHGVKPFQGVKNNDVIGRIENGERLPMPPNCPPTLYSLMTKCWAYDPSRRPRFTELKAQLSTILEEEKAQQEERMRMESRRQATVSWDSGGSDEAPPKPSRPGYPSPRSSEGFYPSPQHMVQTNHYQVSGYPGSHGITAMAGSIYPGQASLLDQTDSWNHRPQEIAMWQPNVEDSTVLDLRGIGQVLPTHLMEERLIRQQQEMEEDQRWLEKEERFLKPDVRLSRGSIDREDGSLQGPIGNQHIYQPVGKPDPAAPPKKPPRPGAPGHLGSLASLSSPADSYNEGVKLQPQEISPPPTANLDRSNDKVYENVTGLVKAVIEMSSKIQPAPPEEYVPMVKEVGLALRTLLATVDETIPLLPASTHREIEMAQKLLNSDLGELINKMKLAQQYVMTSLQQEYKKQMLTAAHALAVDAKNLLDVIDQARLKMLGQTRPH

[5] = tested on: HUV-EC-C cells; assay: HUV-EC-C assay, VEGF (3H-thymidine incorporation); type: cell-based, human; conditions: Table 2, VEGF-stimulated HUV-EC-C, read-out: HUV-EC-C ATCC VEGF IC50
Description: (§3) The following protocol may also be used to measure a compound's activity against PDGF-R, FGF-R, VEGF, aFGF or Flk-1/KDR, all of which are naturally expressed by HUV-EC cells.
(§4) 1. […] After cells have detached from the flask, add an equal volume of assay medium and transfer to a 50 mL sterile centrifuge tube (Fisher Scientific; catalogue no. 05-539-6).
(§5) 1. Make up two-fold drug titrations in separate 96-well plates, generally 50 μM on down to 0 μM. Use the same assay medium as mentioned in day 0, step 2 above. Titrations are made by adding 90 μl/well of drug at 200 μM (4×the final well concentration) to the top well of a particular plate column. Since the stock drug concentration is usually 20 mM in DMSO, the 200 μM drug concentration contains 2% DMSO.
Therefore, diluent made up to 2% DMSO in assay medium (F12K+0.5% fetal bovine serum) is used as diluent for the drug titrations in order to dilute the drug but keep the DMSO concentration constant. Add this diluent to the remaining wells in the column at 60 μl/well. […]
(§6) 1. Thaw plates and harvest with a 96-well plate harvester (Tomtec Harvester 96®) onto filter mats (Wallac; catalogue no. 1205-401); read counts on a Wallac Betaplate™ liquid scintillation counter.
as §2

[6] = tested on: HUV-EC-C cells; assay: HUV-EC-C assay, aFGF (3H-thymidine incorporation); type: cell-based, human; conditions: Table 2, aFGF-stimulated HUV-EC-C, read-out: HUV-EC-C ATCC aFGF IC50
Description: as §3, §4, §5
Therefore, diluent made up to 2% DMSO in assay medium (F12K+0.5% fetal bovine serum) is used as diluent for the drug titrations in order to dilute the drug but keep the DMSO concentration constant. Add this diluent to the remaining wells in the column at 60 μl/well. Take 60 μl from the 120 μl of 200 μM drug dilution in the top well of the column and mix with the 60 μl in the second well of the column. Take 60 μl from this well and mix with the 60 μl in the third well of the column, and so on until two-fold titrations are completed. When the next-to-the-last well is mixed, take 60 μl of the 120 μl in this well and discard it. Leave the last well with 60 μl of DMSO/media diluent as a non-drug-containing control. Make 9 columns of titrated drug, enough for triplicate wells each for 1) VEGF (obtained from Pepro Tech Inc., catalogue no. 100-200, 2) endothelial cell growth factor (ECGF) (also known as acidic fibroblast growth factor, or aFGF) (obtained from Boehringer Mannheim Biochemica, catalogue no. 1439 600); or, 3) human PDGF B/B (1276-956, Boehringer Mannheim, Germany) and assay media control. ECGF comes as a preparation with sodium heparin.
2. Transfer 50 μl/well of the drug dilutions to the 96-well assay plates containing the 0.8-1.0×10^4 cells/100 μl/well of the HUV-EC-C cells from day 0 and incubate ~2 h at 37° C., 5% CO2.
3. In triplicate, add 50 μl/well of […] VEGF, 20 ng/mL ECGF, or media control to each drug condition. As with the drugs, the growth factor concentrations are 4×the desired final concentration. Use the assay media from day 0 step 2 to make the concentrations of growth factors. Incubate approximately 24 hours at 37° C., 5% CO2. Each well will have 50 μl drug dilution, 50 μl growth factor or media, and 100 ul cells, =200 ul/well total. Thus the 4×concentrations of drugs and growth factors become 1× once everything has been added to the wells.
1. Add ^3 H-thymidine (Amersham; catalogue no. TRK-686) at 1 μCi/well (10 μl/well of 100 μCi/mL solution made up in RPMI media+10% heat-inactivated fetal bovine serum) and incubate ~24 h at 37° C., 5% CO2. RPMI is obtained from Gibco BRL, catalogue no. 11875-051.
as §6, §2

[7] = target: EGFr (Homo sapiens, UniProt P00533); assay: EGF receptor ELISA; type: cell-based; set-up: expressed in transfected cells; host or cells: NIH 3T3/C7; conditions: Table 2; read-out: EGFR IC50
EGFr, sequence (P00533 25-1210): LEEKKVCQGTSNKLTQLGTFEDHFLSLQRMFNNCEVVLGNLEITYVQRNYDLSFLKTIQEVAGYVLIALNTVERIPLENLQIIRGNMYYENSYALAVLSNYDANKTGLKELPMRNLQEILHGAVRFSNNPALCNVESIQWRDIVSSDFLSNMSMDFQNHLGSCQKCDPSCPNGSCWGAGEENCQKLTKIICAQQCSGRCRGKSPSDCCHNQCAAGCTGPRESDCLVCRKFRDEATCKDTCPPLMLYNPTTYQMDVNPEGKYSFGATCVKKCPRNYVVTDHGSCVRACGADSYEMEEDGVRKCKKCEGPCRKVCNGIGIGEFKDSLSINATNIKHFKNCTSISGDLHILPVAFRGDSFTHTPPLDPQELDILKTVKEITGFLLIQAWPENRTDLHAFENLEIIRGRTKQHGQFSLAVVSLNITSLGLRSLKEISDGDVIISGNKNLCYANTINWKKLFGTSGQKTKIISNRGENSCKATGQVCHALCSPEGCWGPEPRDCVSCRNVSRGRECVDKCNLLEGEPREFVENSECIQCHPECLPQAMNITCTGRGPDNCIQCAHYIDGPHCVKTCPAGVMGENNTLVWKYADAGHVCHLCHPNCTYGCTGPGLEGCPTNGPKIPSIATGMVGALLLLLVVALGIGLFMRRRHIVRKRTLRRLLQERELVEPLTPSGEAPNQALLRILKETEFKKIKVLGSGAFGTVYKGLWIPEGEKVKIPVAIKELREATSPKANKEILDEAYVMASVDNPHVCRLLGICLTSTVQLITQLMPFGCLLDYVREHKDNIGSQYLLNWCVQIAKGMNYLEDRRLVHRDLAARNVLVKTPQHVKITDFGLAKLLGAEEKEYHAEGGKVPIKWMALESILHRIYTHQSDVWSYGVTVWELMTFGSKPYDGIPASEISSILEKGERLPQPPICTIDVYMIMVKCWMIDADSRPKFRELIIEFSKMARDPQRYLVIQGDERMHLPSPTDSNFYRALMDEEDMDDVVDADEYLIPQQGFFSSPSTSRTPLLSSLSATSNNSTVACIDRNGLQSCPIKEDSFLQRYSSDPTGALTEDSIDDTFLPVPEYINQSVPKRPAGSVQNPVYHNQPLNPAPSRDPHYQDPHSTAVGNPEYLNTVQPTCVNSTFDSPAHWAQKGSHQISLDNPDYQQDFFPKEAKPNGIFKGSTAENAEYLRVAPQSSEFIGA
Description: EGF Receptor kinase activity in cells genetically engineered to express human EGF-R can be measured as described below:
1. Check seeded cells for contamination using an inverted microscope. Dilute drug stock (10 mg/mL in DMSO) 1:10 in DMEM medium, then transfer 5 μL to a test well for a final drug dilution of 1:200 and a final DMSO concentration of 1%. Control wells receive DMSO alone. Incubate in 5% CO2 at 37° C. for one hour.
5. After two hours incubation with drug, add prepared EGF ligand to cells, 10 μL per well, to yield a final concentration of 25 nM. Control wells receive DMEM alone. Incubate, shaking, at room temperature, for 5 minutes.
12. The maximal phosphotyrosine signal is determined by subtracting the value of the negative controls from the positive controls. The percent inhibition of phosphotyrosine content for extract-containing wells is then calculated, after subtraction of the negative controls.

[8] = target: PDGFr (Homo sapiens, UniProt P09619); assay: PDGF-R ELISA; type: cell-based; set-up: cells (U1242, obtained from Joseph Schlessinger, NYU); endogenous in cells; host or cells: U1242; conditions: read-out: PDGFR IC50; Table 2
PDGFr, sequence (P09619 33-1106): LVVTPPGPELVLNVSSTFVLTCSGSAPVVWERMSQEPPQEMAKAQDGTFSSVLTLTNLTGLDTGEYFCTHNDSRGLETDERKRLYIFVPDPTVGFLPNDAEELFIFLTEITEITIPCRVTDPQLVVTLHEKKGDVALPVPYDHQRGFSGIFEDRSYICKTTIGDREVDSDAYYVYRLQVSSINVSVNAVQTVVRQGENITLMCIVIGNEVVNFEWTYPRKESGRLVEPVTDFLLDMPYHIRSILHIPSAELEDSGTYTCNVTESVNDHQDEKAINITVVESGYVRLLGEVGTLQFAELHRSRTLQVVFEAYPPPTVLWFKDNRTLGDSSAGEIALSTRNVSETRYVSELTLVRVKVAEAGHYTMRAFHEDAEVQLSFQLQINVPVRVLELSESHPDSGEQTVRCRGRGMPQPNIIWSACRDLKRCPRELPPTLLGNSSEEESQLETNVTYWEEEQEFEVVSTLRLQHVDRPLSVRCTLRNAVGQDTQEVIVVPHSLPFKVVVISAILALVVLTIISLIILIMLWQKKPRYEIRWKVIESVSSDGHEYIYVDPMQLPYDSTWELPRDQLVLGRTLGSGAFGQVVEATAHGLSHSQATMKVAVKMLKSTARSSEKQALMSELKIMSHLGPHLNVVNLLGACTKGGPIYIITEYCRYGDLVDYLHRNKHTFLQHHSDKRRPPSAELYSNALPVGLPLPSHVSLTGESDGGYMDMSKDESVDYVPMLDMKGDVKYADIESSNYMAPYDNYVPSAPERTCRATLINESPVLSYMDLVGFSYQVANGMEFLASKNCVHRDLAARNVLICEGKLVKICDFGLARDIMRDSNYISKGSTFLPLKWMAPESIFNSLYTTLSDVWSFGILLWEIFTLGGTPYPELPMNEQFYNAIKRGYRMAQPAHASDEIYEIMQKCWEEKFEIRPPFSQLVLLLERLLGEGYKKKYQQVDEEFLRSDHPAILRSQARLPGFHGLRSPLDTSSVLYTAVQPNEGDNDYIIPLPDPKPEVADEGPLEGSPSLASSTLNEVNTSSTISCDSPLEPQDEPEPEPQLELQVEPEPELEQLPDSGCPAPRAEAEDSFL
Description: All cell culture media, glutamine, and fetal bovine serum can be purchased from Gibco Life Technologies (Grand Island, N.Y.) unless otherwise specified. […] All cell lines are routinely subcultured twice a week and are negative for mycoplasma as determined by the Mycotect method (Gibco).
For ELISA assays, cells (U1242, obtained from Joseph Schlessinger, NYU) are grown to 80-90% confluency in growth medium (MEM with 10% FBS, NEAA, 1 mM NaPyr and 2 mM GLN) and seeded in 96-well tissue culture plates in 0.5% serum at 25,000 to 30,000 cells per well. After overnight incubation in 0.5% serum-containing medium, cells are changed to serum-free medium and treated with test compound for 2 hr in a 5% CO2, 37° C. incubator. […] Lysates are incubated with shaking for 1 hour at room temperature. The plates are washed with TBST four times and then incubated with polyclonal anti-phosphotyrosine antibody at room temperature for 30 minutes. Excess anti-phosphotyrosine antibody is removed by rinsing the plate with TBST four times. Goat anti-rabbit IgG antibody is added to the ELISA plate for 30 min at room temperature followed by rinsing with TBST four more times. […] Absorbance at 410 nm with a reference wavelength of 630 nm is recorded about 15 to 30 min after ABTS addition.

T1 sequence (P35918 20-1345): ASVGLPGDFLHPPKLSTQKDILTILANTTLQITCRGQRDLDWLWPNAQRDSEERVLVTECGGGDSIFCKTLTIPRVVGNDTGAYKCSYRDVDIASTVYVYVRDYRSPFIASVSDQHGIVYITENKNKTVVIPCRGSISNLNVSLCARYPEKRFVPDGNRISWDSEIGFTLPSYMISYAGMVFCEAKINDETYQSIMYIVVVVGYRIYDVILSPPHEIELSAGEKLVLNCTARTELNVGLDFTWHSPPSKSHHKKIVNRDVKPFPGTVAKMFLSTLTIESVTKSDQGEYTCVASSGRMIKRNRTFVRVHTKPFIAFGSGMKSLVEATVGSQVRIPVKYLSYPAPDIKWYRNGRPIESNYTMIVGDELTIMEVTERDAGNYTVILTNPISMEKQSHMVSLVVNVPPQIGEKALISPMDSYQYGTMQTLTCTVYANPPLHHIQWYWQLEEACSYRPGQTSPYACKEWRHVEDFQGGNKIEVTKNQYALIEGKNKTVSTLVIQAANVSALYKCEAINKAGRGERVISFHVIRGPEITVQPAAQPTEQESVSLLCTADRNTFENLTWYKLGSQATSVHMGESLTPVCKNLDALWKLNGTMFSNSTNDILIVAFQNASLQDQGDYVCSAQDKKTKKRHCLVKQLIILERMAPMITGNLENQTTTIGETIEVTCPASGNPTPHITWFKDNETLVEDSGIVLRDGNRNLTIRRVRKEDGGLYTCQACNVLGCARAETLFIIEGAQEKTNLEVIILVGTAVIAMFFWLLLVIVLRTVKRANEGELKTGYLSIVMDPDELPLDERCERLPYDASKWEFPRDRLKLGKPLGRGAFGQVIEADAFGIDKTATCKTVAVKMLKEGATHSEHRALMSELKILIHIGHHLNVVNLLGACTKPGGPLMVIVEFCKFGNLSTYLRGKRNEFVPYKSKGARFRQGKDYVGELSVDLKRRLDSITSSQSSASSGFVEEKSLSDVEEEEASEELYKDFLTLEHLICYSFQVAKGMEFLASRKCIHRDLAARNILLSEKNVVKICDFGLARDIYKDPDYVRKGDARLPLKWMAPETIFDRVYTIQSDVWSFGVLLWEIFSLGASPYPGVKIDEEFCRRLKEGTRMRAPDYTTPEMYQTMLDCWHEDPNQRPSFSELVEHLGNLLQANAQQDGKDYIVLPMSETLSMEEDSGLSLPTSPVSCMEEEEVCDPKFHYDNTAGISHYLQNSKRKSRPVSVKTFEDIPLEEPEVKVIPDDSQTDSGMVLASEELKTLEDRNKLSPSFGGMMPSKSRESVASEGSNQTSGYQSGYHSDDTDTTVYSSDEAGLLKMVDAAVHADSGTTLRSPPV

`NS(=O)(=O)c1ccc2c(c1)C(=Cc1cc3c([nH]1)CCCC3)C(=O)N2` was tested, and the pIC50 [1] was < 4.00, the pIC50 [2] was 6.10 and the pIC50 [3] was 6.15. For the same compound, the pIC50 [4] was < 5.00, the pIC50 ([5]; Homo sapiens) was 6.19 and the pIC50 [5] was 5.97. For the same compound, the pIC50 ([6]; Homo sapiens) was 5.62, the pIC50 [6] was 5.48 and the pIC50 [7] was < 4.00. For the same compound, the pIC50 [8] was 6.00.
